Laboratory results: patent publication US9688722B2, “Substrates and inhibitors of prolyl oligopeptidase and methods of use” (The Board of Regents of the University of Oklahoma, priority 2012, dated 2017)
“And” between values parts separate entries of the source, which are not always exact repeats. Equal values may be shown once.

Experiments:
[1] = target: T1, APCE/FAP (Homo sapiens, UniProt Q12884); test: APCE/FAP inhibition constants (Ki) with Tic-Pro-AFC substrate; format: biochemical; conditions: substrate Tic-Pro-AFC
T1 construct: absence of an about 26-residue amino terminal peptide constituting the transmembrane and intracytosolic domains; from tissue
T1 sequence (Q12884 24-760 limits assumed): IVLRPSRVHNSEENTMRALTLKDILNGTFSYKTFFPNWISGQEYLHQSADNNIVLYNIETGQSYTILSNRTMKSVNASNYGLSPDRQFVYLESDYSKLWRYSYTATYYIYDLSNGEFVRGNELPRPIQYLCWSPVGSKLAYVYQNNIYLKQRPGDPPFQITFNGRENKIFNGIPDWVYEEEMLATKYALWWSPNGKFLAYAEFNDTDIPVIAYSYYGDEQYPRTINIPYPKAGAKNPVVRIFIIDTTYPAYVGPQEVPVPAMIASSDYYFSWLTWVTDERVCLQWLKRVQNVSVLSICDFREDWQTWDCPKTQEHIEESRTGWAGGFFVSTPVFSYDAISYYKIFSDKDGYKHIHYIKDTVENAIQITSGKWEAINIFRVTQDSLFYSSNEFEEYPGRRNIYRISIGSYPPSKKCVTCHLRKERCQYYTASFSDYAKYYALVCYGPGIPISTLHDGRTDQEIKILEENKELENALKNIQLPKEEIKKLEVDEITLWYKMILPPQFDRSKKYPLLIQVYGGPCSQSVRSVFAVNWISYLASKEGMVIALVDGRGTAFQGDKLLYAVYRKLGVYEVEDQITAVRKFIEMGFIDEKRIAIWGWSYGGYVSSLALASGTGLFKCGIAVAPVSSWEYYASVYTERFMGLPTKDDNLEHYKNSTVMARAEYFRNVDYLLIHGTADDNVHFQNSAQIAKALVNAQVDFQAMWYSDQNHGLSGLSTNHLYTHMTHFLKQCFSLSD
Description: (§1) For accurate assessment of kinetic parameters, saturating concentrations of substrate were used. For standard curves, dilutions of AFC (7-amino-4-trifluoromethylcoumarin) were prepared in the same assay buffer and corresponding fluorescence was measured.

[2] = target: DPPIV (Homo sapiens, UniProt P27487); test: DPPIV inhibition constants (Ki) with Tic-Pro-AFC substrate; format: biochemical
DPPIV, sequence (P27487 whole entry, species assumed): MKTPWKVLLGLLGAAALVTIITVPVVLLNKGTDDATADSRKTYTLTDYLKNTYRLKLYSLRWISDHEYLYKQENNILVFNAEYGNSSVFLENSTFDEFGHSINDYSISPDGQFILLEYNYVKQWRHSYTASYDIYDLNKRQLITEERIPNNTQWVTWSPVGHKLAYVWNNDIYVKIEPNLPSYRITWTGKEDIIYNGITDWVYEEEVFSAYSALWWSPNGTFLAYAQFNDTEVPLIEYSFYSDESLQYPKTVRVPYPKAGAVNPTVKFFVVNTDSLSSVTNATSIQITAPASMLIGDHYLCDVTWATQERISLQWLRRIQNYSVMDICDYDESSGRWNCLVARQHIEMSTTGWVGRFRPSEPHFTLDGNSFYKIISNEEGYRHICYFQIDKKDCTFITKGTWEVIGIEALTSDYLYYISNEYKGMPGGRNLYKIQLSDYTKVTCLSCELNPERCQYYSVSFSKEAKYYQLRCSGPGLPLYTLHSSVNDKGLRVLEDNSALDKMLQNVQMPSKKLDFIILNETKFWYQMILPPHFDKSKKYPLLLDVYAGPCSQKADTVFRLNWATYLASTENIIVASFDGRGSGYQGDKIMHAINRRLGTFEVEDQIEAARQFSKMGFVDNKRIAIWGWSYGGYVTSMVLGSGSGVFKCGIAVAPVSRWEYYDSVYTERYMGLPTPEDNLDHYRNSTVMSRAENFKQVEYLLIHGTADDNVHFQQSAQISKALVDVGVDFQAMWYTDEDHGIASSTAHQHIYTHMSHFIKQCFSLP
Description: as §1

[3] = target: T2, POP (Homo sapiens, UniProt P48147); test: POP inhibition constants (Ki) with Tic-Pro-AFC substrate; format: biochemical
T2 sequence (P48147 1-710): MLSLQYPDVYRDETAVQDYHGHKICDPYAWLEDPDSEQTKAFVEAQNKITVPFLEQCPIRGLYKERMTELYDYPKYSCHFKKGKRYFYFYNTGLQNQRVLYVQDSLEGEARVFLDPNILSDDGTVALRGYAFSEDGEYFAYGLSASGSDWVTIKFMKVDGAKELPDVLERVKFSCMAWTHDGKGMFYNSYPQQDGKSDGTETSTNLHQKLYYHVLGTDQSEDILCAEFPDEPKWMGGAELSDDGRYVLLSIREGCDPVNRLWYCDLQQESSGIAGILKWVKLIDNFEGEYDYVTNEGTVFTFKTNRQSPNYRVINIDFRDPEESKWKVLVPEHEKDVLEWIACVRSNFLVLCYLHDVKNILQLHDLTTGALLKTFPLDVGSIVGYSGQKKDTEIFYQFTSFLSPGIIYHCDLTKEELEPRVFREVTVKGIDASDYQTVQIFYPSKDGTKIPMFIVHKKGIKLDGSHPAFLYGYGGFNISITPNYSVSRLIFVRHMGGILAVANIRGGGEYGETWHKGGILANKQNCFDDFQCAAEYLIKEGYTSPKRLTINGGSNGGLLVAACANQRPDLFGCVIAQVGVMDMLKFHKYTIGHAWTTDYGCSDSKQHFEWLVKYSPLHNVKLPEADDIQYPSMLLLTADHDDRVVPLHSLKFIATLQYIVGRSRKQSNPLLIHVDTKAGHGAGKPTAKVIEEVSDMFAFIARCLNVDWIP
Description: as §1

[4] = system: human lung adenocarcinoma epithelial cells; test: Lung cancer xenografts in nude mice; format: in vivo
Description: Mice were given a 50 μl injection into each hind leg consisting of human lung adenocarcinoma epithelial cells (2×10^6 cells) suspended in Matrigel™. After ten days the tumors had grown to an estimated 40 mm^3, so M83 treatment was initiated (day 0 in graph). For the M83 treatment group, mice were given a daily intraperitoneal injection of 26.5 micrograms of M83 dissolved in 20 microliters of sterile saline. The mice of the control group were given an intraperitoneal injection of 20 microliters of sterile saline. […] The treatment groups consisted of three mice each with two tumors per mouse.

[5] = system: HCT116 human colon cancer xenografts; test: HCT116 human colon cancer xenografts in immunodeficient mice; format: in vivo; conditions: 28-day treatment period

- Ki [1]: 0.0057 µM
- Selectivity Ki (DPPIV) / Ki (APCE-FAP) ([2]; ratio of Ki values): 1076
- inhibition of DPPIV ([2]; result in words): nor was it inhibited
- Ki ([2]; substrate Tic-Pro-AFC): 6.13 µM and 6.14 µM
- Selectivity Ki (POP) / Ki (APCE/FAP) ([3]; ratio of Ki values): 1.3
- Ki ([3]; substrate Tic-Pro-AFC): 0.0074 µM
SMILES: CC(=O)N[C@@H](CCCNC(=N)N)C(=O)NCCOCCOCC(=O)N[C@H](C)C(=O)N1CCC[C@H]1B(O)O [Compound M83, acetyl-Arg-AEEA-(D)Ala-(L)boroPro]
- tumor growth ([4]; daily intraperitoneal 26.5 micrograms, nude mice, versus saline control): failed to progress
- average tumor volume ([4]; day 28 of treatment versus day zero): no greater than on day zero
- tumors completely disappeared ([4]; six tumors in treatment group, 28 days): one of the six tumors
- effectiveness on cancer growth relative to J94 [5]: slightly more effective than this
